The text below walks through data of patent publication US9304125B2, “Devices and methods for observing the cell division” (CENTRE NATIONAL DE LA RECHERCHE SCIENTIFIQUE, priority 2009, dated 2016).

The test concerns cytokinetic ring. The experiment in a line: Cytokinetic ring closure of fission yeast in egg-cup wells, observed by fluorescence microscopy (rlc1-mCherry). The class given is cell-based, Schizosaccharomyces pombe. The following applies: latrunculin A 2 μM; FIG. 5B.

“Also recorded” adds a separate entry of the source.

Method: Here, they illustrate results with the myosin light chain encoded by rcl1 gene fused to mCherry.
The inventors incubated the cells with latrunculin A (2 μM), a drug known to bind monomeric actin and therefore preventing its polymerisation (Ayscough, 1998).
Standard methods were used for cell growth (Moreno et al., 1991). Briefly, cells were growing exponentially in EMM4S (Moreno et al., 1991), and experiments were conducted using the same medium in the chamber.
S. pombe strains successfully used in this study were the following: • JM 207 h+ rlc1 mcherry::natR ura- leu- ade-, J. Moseley • JW 1110 h+ kanMX6-Pmyo2-mYFP-myo2 ade6-M210 leu1-32 ura4-D18, J.-Q. Wu (Wu and Pollard, 2005) • PPG 5054, h+ leu1-32 ura4-D18 pax::KanMX6 leu1+::GFPpax+, Pilar Perez Lab (Pinar et al., 2008). • JW 977 h+ cdc15-mYFP-kanMX6 ade6-M210 leu1-32 ura4-D18, J.-Q. Wu (Wu and Pollard, 2005) • 519 h− bgs1Δ::ura4^+ Pbgs1^+::GFP-bgs1^+:leu1^+ leu1-32 ura4-Δ18 his3-Δ1, Pilar Perez (Cortes et al., 2002)
Cells were grown in exponential phase at 32° C. At about 0.5 optical density, the EMM4S medium was removed twice by centrifugation at 1000 g for 2 min followed by cells resuspension in a EMM-N medium (Moreno et al., 1991): cells were nitrogen starved at 32° C. for 5 hours. Cells were then pelleted with a 2 min centrifugation at 1000 g and they were resuspended in EMM4S. The egg cup surface (face up) was carefully placed on the top of a home-made plastic holder deposited in a 50 ml tube (adapted from the set-up used by (Allen et al., 2007)); 13 ml of EMM4S was poured in the tube. Cells were exposed to sonication 30 s (Branson 200, Ultrasonic Cleaner) to separate aggregated cells, and 1 ml of cell suspension was added to the 50 ml tube. Cells were then centrifuged at 500 g for 2 mn on the egg-cup surface resting on the special plastic holder. The egg cup surface was carefully removed from the holder and it was inserted in a home-made chamber (see FIG. 2D). The sample preparation was achieved by screwing a top metal piece onto the surface holder. […]

For `C/C1=C/C(=O)O[C@@H]2C[C@@H](CC[C@H](C)/C=C\C=C\CC1)O[C@@](O)([C@@H]1CSC(=O)N1)C2` [latrunculin A], the “closure of the cytokinetic ring” value is listed as “the closure was stopped”; the cytokinetic ring integrity entry is “the ring disassembled, and this led to the clustering of myosin into discrete patches; also recorded: disrupts the ring”.
